Data from US5227466A, “Insulin receptor binding site” (City of Hope, priority 1988, dated 1993).
Where a SMILES comes first, the peptide text is derived from it.

Target: ^125 I-insulin (Homo sapiens, UniProt P01308)
Assay: 125I-insulin binding to water suspension of the peptide, centrifugation
Experimental: To test for insulin binding, a water suspension of the peptide was incubated at room temperature with a tracer of ^125 I-insulin followed by simple centrifugation. […] The apparent dissociation constant was ~6×10^-7 M. Non-specific binding was negligible.

Chain of ^125 I-insulin (P01308 25-54 limits assumed): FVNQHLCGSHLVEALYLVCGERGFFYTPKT
Chain of ^125 I-insulin (P01308 90-110 limits assumed): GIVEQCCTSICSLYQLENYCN

Kd (displacement of ^125 I-insulin by unlabelled insulin (FIG. 4), read-out: apparent dissociation constant): ~600 nM | fraction of ^125 I-insulin tracer bound by the peptide (water suspension of the peptide, room temperature, centrifugation): up to 30%
Compound: CC[C@H](C)[C@H](NC(=O)[C@@H](NC(=O)[C@H](CC(C)C)NC(=O)[C@H](C)NC(=O)[C@H](Cc1ccc(O)cc1)NC(=O)[C@H](CC(N)=O)NC(=O)[C@H](Cc1ccccc1)NC(=O)[C@H](Cc1ccccc1)NC(=O)[C@H](CC(C)C)NC(=O)[C@@H](N)CCCNC(=N)N)C(C)C)C(=O)N[C@@H](Cc1ccccc1)C(=O)N[C@@H](CCC(=O)O)C(=O)N[C@@H](CCSC)C(=O)N[C@H](C(=O)N[C@@H](Cc1c[nH]cn1)C(=O)N[C@@H](CC(C)C)C(=O)N[C@@H](CCCCN)C(=O)N[C@@H](CCC(=O)O)C(=O)O)C(C)C [Sequence I] (H-RLFFNYALVIFEMVHLKE-OH)
